Holding throughout (assay): DTP human tumour cell line panel, 48 h
Experiment [1] deals with MDA-MB-231 breast.
Experiment [2] has as its system OVCAR-3 ovarian.
Experiment [3] deals with UACC-257 melanoma.
For experiment [4], the system named is IGROV1 ovarian.
For experiment [5], the system named is COLO 205 colon.
In experiment [6] the test system is PC-3 prostate.
For experiment [7], the system named is RXF 393 renal.
Experiment [8] deals with NCI-H522 lung.
Experiment [9] deals with LOX IMVI melanoma.
For experiment [10], the system named is M14 melanoma.
Experiment [11] deals with SN12C renal.
The test system of experiment [12] is HS 578T breast.
The test system of experiment [13] is SF-268 CNS.
In experiment [14] the test system is MCF7 breast.
The subject of experiment [15] is MALME-3M melanoma.
The test system of experiment [16] is SR leukemia.

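The compound was tested at five concentrations on cells cultured in 96-well plates, with a 48-hour exposure period. TGI: concentration producing complete growth inhibition.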

The TGI is the concentration giving total growth inhibition. Higher therefore signals less potent growth arrest. Take `CCS(=O)(=O)CCn1cnc2c1c(=O)n(C)c(=O)n2C`: the concentration for total growth inhibition (TGI) in [1], in experiment [2], in experiment [3], in experiment [4], in [5] and in [6] was greater than 100 µM throughout. In addition, the TGI in experiment [7], in [8], in [9], in experiment [10], in experiment [11] and in experiment [12] was greater than 100 µM each time. Moreover, the TGI in [13] and in experiment [14] was greater than 100 µM throughout.
In the case of `CCOC(=O)/C=C1\c2ccccc2C(=O)N1CC(=O)OCC`, the TGI in experiment [1], in experiment [2], in [3], in experiment [4], in [5] and in experiment [6] was greater than 100 µM in each case. Moreover, the TGI in experiment [15], in [7], in experiment [8], in experiment [9], in [10] and in experiment [11] was greater than 100 µM in each case. The TGI in experiment [12] and in experiment [13] was greater than 100 µM each time.
With `Cc1c2c(n(CCN(C)C)c1C)NN=C(C#N)S2(=O)=O`, the TGI in experiment [1], in experiment [2], in [3], in experiment [4], in experiment [5] and in experiment [6] was greater than 100 µM throughout. For the same compound, the TGI in [15], in [9], in [10], in [11], in experiment [12] and in experiment [13] was greater than 100 µM throughout. The TGI in [14] is greater than 100 µM.
For `N#CCCN(CCN(C(=O)Nc1ccccc1)c1ccccc1)C(=O)Nc1ccccc1`, the TGI in experiment [1], in experiment [2], in experiment [3], in [4], in experiment [5] and in experiment [6] was greater than 100 µM in each case. The TGI in experiment [15] was greater than 100 µM; in [7] it was greater than 90.1 µM; in experiment [8] it was greater than 100 µM; in [9], greater than 100 µM; in experiment [10], greater than 100 µM; in experiment [11], greater than 100 µM. The TGI in experiment [16], in experiment [13] and in experiment [14] was greater than 100 µM each time.
As for `C=C1CN(Cc2ccccc2)[C@@H]2CCCCC[C@H](C#N)[C@H]12`, the TGI in experiment [1], in experiment [2], in [3], in [4], in experiment [5] and in experiment [6] was greater than 100 µM each time. Further, the TGI in experiment [15], in experiment [7], in experiment [8], in experiment [9], in [10] and in [11] was greater than 100 µM in each case. The TGI in experiment [16], in experiment [13] and in [14] was greater than 100 µM each time.
With `O=c1cc(-c2ccc(Cl)cc2)oc2cc(OCCCOc3ccc4c(=O)cc(-c5ccc(Cl)cc5)oc4c3)ccc12`, the TGI in [2], in [3], in [4], in experiment [5], in experiment [15] and in experiment [7] was greater than 100 µM each time. Also, the concentration for total growth inhibition (TGI) in [8], in experiment [9], in experiment [10], in experiment [11], in [16] and in [13] was greater than 100 µM each time.
`O=c1[nH]n(Cc2ccccn2)c2ccc([N+](=O)[O-])cc12`: the TGI in experiment [1], in experiment [2], in experiment [3], in [4], in experiment [5] and in experiment [6] was greater than 100 µM in each case. For the same compound, the TGI in [15], in [7], in experiment [8], in [9], in [10] and in experiment [11] was greater than 100 µM each time. Further, the TGI in experiment [12], in [16] and in [13] was greater than 100 µM in each case.
On to `Cn1ncnc1CCc1ccccc1`, for which the TGI in experiment [2], in experiment [3], in [4], in experiment [5], in [15] and in experiment [7] was greater than 100 µM in each case. The TGI in [8], in experiment [9], in experiment [10], in [11], in experiment [16] and in experiment [13] was greater than 100 µM each time.
With `COc1ccc([C@@]23OC[C@@H]4[C@@H](OC[C@@H]42)c2cc(OC)c(OC)cc23)cc1OC`, the TGI in experiment [1], in experiment [2], in experiment [4], in [5], in [6] and in experiment [15] was greater than 100 µM throughout. Further, the TGI in [7], in [8], in experiment [9], in [10], in experiment [16] and in [14] was greater than 100 µM throughout.
Turning to `COC(=O)C(Cc1nc2ccc(Cl)cc2[nH]c1=O)/C(=N/NC(N)=O)C(=O)Nc1ccc(Cl)cc1` (centres undefined), the TGI in experiment [2], in experiment [3], in [4], in experiment [5], in experiment [15] and in experiment [7] was greater than 100 µM each time. Besides, the TGI in [8], in experiment [9], in experiment [10], in experiment [11], in experiment [16] and in experiment [13] was greater than 100 µM throughout.

Source of the values: PubChem BioAssay (NCI).
